According to patent publication US9139532B2, “Pyrazolyl guanidine F1F0-atpase inhibitors and therapeutic uses thereof” (Lycera Corporation, priority 2010, dated 2015):
Like-named read-outs stand apart in the source and are kept apart here.

Tests used:
[1] = tested on: Ramos cells; assay: Cytotoxicity in Ramos cells; assay type: cell-based; details: cytotoxicity in Ramos cells, read-out: Ramos Cell EC50
[2] = molecular target: T1, F1F0-ATPase (Bos taurus, UniProt P13621); assay: Inhibition of F1F0-ATPase activity in synthesizing ATP; assay type: biochemical; details: inhibition of ATP synthesis by F1F0-ATPase; read-out: ATP Syn IC50
T1 construct: from tissue

Row | SMILES | EC50 [1] [µM] | IC50 [2] [µM] | EC50 ([1]; Homo sapiens) [µM]
1 | CC(C)(C)N/C(=N/C(=O)c1ccc(F)c(F)c1)Nc1cc(-c2cccc(C(F)(F)F)c2)[nH]n1 [Compound A-423] | < 10 | < 10 | –
2 | COC[C@H](C)N/C(=N/C(=O)c1ccc(O)cc1)Nc1cc(-c2ccc(F)cc2)n[nH]1 [Compound A-492] | < 10 | < 10 | –
3 | O=C(/N=C(\Nc1cc(C(F)(F)F)n[nH]1)NC1CCCOC1)c1ccc(Cl)c(F)c1 (stereo not drawn) [Compound A-119] | – | < 10 | < 10
4 | CC(C)(C)N/C(=N/C(=O)c1ccc(C(F)(F)F)cc1)Nc1cc(-c2ccc(F)cc2)[nH]n1 [Compound A-50] | – | < 10 | < 10
5 | O=C(N=C(Nc1cc(-c2cc(F)cc(F)c2)n[nH]1)NC1CCC1)c1ccc(C(F)(F)F)cc1 [Compound A-298] | – | < 10 | < 10
6 | CCC(C)CN/C(=N/C(=O)c1ccc(F)c(F)c1)Nc1cc(-c2ccc(C)c(F)c2)n[nH]1 (stereo not drawn) [Compound A-321] | < 10 | < 10 | –
7 | CCC(C)NC(=NC(=O)c1ccc(Cl)c(F)c1)Nc1cc(-c2cc(F)cc(F)c2)n[nH]1 (stereo not drawn) [Compound A-362] | – | < 10 | < 10
8 | COc1cccc(C(=O)/N=C(\Nc2cc(-c3ccc(F)cc3)[nH]n2)NC(C)C)c1 [Compound A-524] | < 10 | < 10 | –
9 | CC(C)(C)CN/C(=N/C(=O)c1ccc(Cl)cc1)Nc1cc(C(F)(F)F)n[nH]1 [Compound A-42] | – | < 10 | < 10
10 | CC(N/C(=N/C(=O)c1ccc(C(F)(F)F)cc1)Nc1cc(C(F)(F)F)[nH]n1)c1ccccc1Cl (stereo not drawn) [Compound A-22] | – | < 10 | < 10
11 | CC(C)(C)NC(=NC(=O)c1ccc(Cl)c(F)c1)Nc1cc(-c2ccc(Cl)cc2)n[nH]1 [Compound A-469] | – | < 10 | < 10
12 | CC(C)(C)CN/C(=N/C(=O)c1ccc(C(F)F)cc1)Nc1cc(C(F)(F)F)[nH]n1 [Compound A-66] | – | < 10 | < 10
13 | O=C(/N=C(/NCc1ccc(F)cc1Cl)Nc1cc(-c2ccc(Cl)cc2)n[nH]1)c1ccc(C(F)(F)F)cc1 [Compound A-445] | < 10 | < 10 | –
14 | Cc1ccc(-c2cc(N/C(=N\C(=O)c3ccc(F)c(F)c3)NC(C)(C)C)[nH]n2)cc1F [Compound A-433] | < 10 | < 10 | –
15 | O=C(/N=C(/Nc1cc(F)cc(Cl)c1)Nc1cc(C2CC2)[nH]n1)c1ccc(Cl)c(F)c1 [Compound A-146] | < 10 | < 10 | –
16 | CC(C)(C)N/C(=N/C(=O)c1cccc(S(C)(=O)=O)c1)Nc1cc(-c2ccc(F)cc2)n[nH]1 [Compound A-499] | < 10 | < 10 | –
17 | CCC(C)N/C(=N/C(=O)c1ccc(Cl)cc1)Nc1cc(-c2cc(F)cc(F)c2)n[nH]1 (stereo not drawn) [Compound A-234] | < 10 | < 10 | –
18 | O=C(/N=C1\Nc2cc(-c3ccc(F)cc3)nn2C[C@@H]2CCCN12)c1ccc(F)cc1 [Compound A-569, (S,E)-4-fluoro-N-(2-(4-fluorophenyl)-8,9,9a,10-tetrahydro-4H-pyrazolo[1,5-a]pyrrolo[1,2-e][1,3,5]triazepin-5(7H)-ylidene)benzamide] | – | > 10 | > 10
19 | CC(=O)Nc1cc(C(=O)N=C(Nc2cc(-c3ccc(F)cc3)[nH]n2)NC(C)(C)C)ccn1 [Compound A-485] | – | > 10 | > 10
20 | COc1cccc(CN/C(=N/C(=O)c2cc(F)c(F)c(F)c2)Nc2cc(-c3ccc(F)cc3)[nH]n2)c1 [Compound A-396] | < 10 | < 10 | –

Row | SMILES | EC50 [1] [µM] | IC50 [2] [µM] | EC50 ([1]; Homo sapiens) [µM]
21 | CC(C)CN/C(=N/C(=O)c1ccc(Cl)c(F)c1)Nc1cc(-c2cc(F)cc(F)c2)n[nH]1 [Compound A-352] | < 10 | < 10 | –
22 | COc1ccc(C(=O)/N=C(\Nc2cc(-c3ccc(F)cc3)n[nH]2)NC(C)(C)C)cn1 [Compound A-494] | < 10 | < 10 | –
23 | CCC(C)N/C(=N/C(=O)c1cccc(S(C)(=O)=O)c1)Nc1cc(-c2ccc(F)cc2)n[nH]1 (stereo not drawn) [Compound A-430] | < 10 | < 10 | –
24 | CCC(CC)NC(=NC(=O)c1ccc(Cl)c(F)c1)Nc1cc(-c2cc(F)cc(F)c2)n[nH]1 [Compound A-350] | – | < 10 | < 10
25 | CC(C)(C)N/C(=N/C(=O)c1ccc(Cl)cc1)Nc1cc(-c2ccc(F)cc2)n[nH]1 [Compound A-453] | < 10 | < 10 | –
26 | CCOCCCN/C(=N/C(=O)c1ccc(F)c(F)c1)Nc1[nH]nc(-c2ccc(Cl)cc2)c1F [Compound A-160] | > 10 | < 10 | –
27 | Cc1cc(C(=O)N=C(Nc2cc(C(F)(F)F)[nH]n2)NC(C)CO)ccc1F (stereo not drawn) [Compound A-404] | > 10 | < 10 | –
28 | C[C@@H](CO)N/C(=N/C(=O)c1ccc(F)cc1)Nc1cc(-c2ccc(F)cc2)n[nH]1 [Compound A-391] | > 10 | > 10 | –
29 | Cc1ccccc1CN/C(=N/C(=O)c1cccc(F)c1)Nc1cc(-c2ccc(F)cc2)[nH]n1 [Compound A-399] | < 10 | < 10 | –
30 | CC(C)(C)c1cc(N/C(=N\C(=O)c2ccc(Cl)cc2)NC(C2CC2)C2CC2)n[nH]1 [Compound A-15] | – | < 10 | < 10
31 | CC(C)(C)NC(=NC(=O)c1ccc(Cl)cc1)Nc1cc(-c2cccc(Cl)c2)[nH]n1 [Compound A-131] | – | < 10 | < 10
32 | O=C(N=C(Nc1cc(-c2cc(F)cc(F)c2)n[nH]1)Nc1ccc(F)cc1Cl)c1ccc(C(F)(F)F)cc1 [Compound A-294] | – | < 10 | > 10
33 | CC(N/C(=N\C(=O)c1ccc(C(F)(F)F)cc1)Nc1cc(C(F)(F)F)n[nH]1)c1cccc(Cl)c1 (stereo not drawn) [Compound A-89] | – | < 10 | < 10
34 | COCC(C)NC(=NC(=O)c1ccc(Cl)c(F)c1)Nc1cc(-c2ccc(F)cc2)n[nH]1 (stereo not drawn) [Compound A-218] | < 10 | < 10 | –
35 | CCC(C)(C)N/C(=N/C(=O)c1ccc(C(F)F)cc1)Nc1cc(C(F)(F)F)[nH]n1 [Compound A-74] | – | < 10 | < 10
36 | COc1ccc(C(=O)/N=C(\Nc2cc(-c3ccc(F)cc3)[nH]n2)NC(C)C)cc1 [Compound A-523] | > 10 | < 10 | –
37 | CC(N/C(=N/C(=O)c1ccc(F)c(F)c1)Nc1cc(C(F)(F)F)[nH]n1)c1ccccc1Cl (stereo not drawn) [Compound A-28] | – | < 10 | < 10
38 | Cc1cc(-c2cc(N/C(=N\C(=O)c3ccc(F)cc3)NC(C)(C)C)n[nH]2)ccc1F [Compound A-418] | < 10 | < 10 | –
39 | CC(C)(C)NC(=NC(=O)c1cccc(Cl)c1)Nc1cc(-c2ccc(Cl)cc2)n[nH]1 [Compound A-130] | – | < 10 | < 10
40 | CC(C)(C)N/C(=N/C(=O)c1ccc(F)cc1)Nc1cc(-c2cccc(Cl)c2)[nH]n1 [Compound A-134] | < 10 | < 10 | –

Row | SMILES | EC50 [1] [µM] | IC50 [2] [µM] | EC50 ([1]; Homo sapiens) [µM]
41 | COc1ccc(-c2cc(N/C(=N\C(=O)c3ccc(F)c(F)c3)Nc3cc(F)cc(Cl)c3)[nH]n2)cc1 [Compound A-480] | > 10 | < 10 | –
42 | CC(C)(C)N/C(=N/C(=O)c1ccc(Cl)cc1)Nc1cc(C(F)F)[nH]n1 [Compound A-54] | – | < 10 | < 10
43 | CC(C)(C)NC(=NC(=O)c1ccc(C(F)(F)F)cc1)Nc1cc(-c2cccc(Cl)c2)[nH]n1 [Compound A-439] | – | < 10 | < 10
44 | O=C(/N=C(\Nc1cc(C(F)(F)F)n[nH]1)NC1CCCOC1)c1ccc(F)c(F)c1 (stereo not drawn) [Compound A-105] | – | < 10 | < 10
45 | O=C(/N=C(\Nc1cc(C(F)(F)F)n[nH]1)NC1CCOCC1)c1ccc(F)c(F)c1 [Compound A-104] | – | < 10 | > 10
46 | O=C(N=C(Nc1cc(C(F)(F)F)n[nH]1)NC1CCC(O)CC1)c1ccc(F)c(F)c1 (stereo not drawn) [Compound A-559] | – | > 10 | > 10
47 | COCC(C)NC(=NC(=O)c1ccc(F)c(F)c1)Nc1cc(-c2cc(F)cc(F)c2)n[nH]1 (stereo not drawn) [Compound A-363] | – | < 10 | < 10
48 | Cc1ccc(-c2cc(N/C(=N\C(=O)c3ccc(F)c(F)c3)NC3CCC3)[nH]n2)cc1F [Compound A-320] | < 10 | < 10 | –
49 | CC1(N/C(=N/C(=O)c2ccc(Cl)cc2)Nc2n[nH]c3ccccc23)CCC1 [Compound A-38] | – | < 10 | < 10
50 | CCC(C)NC(=NC(=O)c1cccc(C#N)c1)Nc1cc(-c2cc(F)cc(F)c2)n[nH]1 (stereo not drawn) [Compound A-313] | – | < 10 | < 10
51 | O=C(/N=C(\Nc1cc(-c2cc(F)cc(F)c2)n[nH]1)NC1CCCC1)c1ccc(F)cc1 [Compound A-243] | < 10 | < 10 | –
52 | CC(C)C(C)N/C(=N/C(=O)c1cccc(C#N)c1)Nc1cc(-c2cc(F)cc(F)c2)n[nH]1 (stereo not drawn) [Compound A-311] | < 10 | < 10 | –
53 | CC1(CNC(=NC(=O)c2ccc(Cl)cc2)Nc2cc(-c3cc(F)cc(F)c3)n[nH]2)CCCO1 (stereo not drawn) [Compound A-212] | – | < 10 | < 10
54 | COc1ccc(-c2cc(N/C(=N\C(=O)c3ccc(C(F)(F)F)cc3)Nc3cc(F)cc(Cl)c3)[nH]n2)cc1 [Compound A-481] | > 10 | < 10 | –
55 | CC(C)(C)NC(=NC(=O)c1cccc(C#N)c1)Nc1cc(-c2ccc(F)cc2)n[nH]1 [Compound A-527] | – | < 10 | < 10
56 | CCOCC(C)NC(=NC(=O)c1ccc(F)c(F)c1)Nc1cc(-c2ccc(F)cc2)n[nH]1 (stereo not drawn) [Compound A-263] | < 10 | < 10 | –
57 | CC(C)(C)NC(=NC(=O)c1ccc(F)cc1)Nc1cc(-c2ccc(Cl)cc2)n[nH]1 [Compound A-135] | – | < 10 | < 10
58 | CC(C)(C)N/C(=N/C(=O)c1ccc(F)cc1F)Nc1cc(-c2ccc(F)cc2)n[nH]1 [Compound A-489] | < 10 | < 10 | –
59 | O=C(/N=C(\Nc1cc(-c2ccc(F)cc2)n[nH]1)NC1CC1)c1cccc(F)c1 [Compound A-202] | > 10 | < 10 | –
60 | CC(C)(C)CN/C(=N/C(=O)c1cccc(C#N)c1)Nc1cc(C(F)(F)F)[nH]n1 [Compound A-72] | – | < 10 | < 10
